Measurements as given in publication PMC9203742 (Nature Communications, 2022).
Values joined by “and” are separate entries in the source; they are usually repeats but may differ in a detail not shown here. Equal values may be shown once.

Experiments:
[1] = test system: HEK293 cells, vector control; test: Fura-2 Ca2+ imaging in HEK293 cells transfected with control vector (Vec); assay type: cell-based; settings: single-cell values #1-#20, listed as Glu
[2] = test system: mGlu1 construct not given; test: Fura-2 Ca2+ imaging in HEK293 cells, source data Suppl Fig1, middle group (c9-c17); construct not given; assay type: cell-based, rat; set-up: unit not given here; settings: single-cell values, cells #15-#20; middle group of third block; listed as Glu
From the text: (§1) Supplement 41467_2022_30828_MOESM6_ESM.zip/Ojima et al_source data_Suppl Fig.xlsx, sheet "Suppl Fig1" | column: Glu; NiCl2; CuCl2; ZnCl2; CdCl2; Na2PdCl2; Pd(bpy)

[3] = test system: mGlu1 construct not given; test: Fura-2 Ca2+ imaging in HEK293 cells, source data Suppl Fig1, right group (c18-c26); construct not given; assay type: cell-based, rat; set-up: unit not given here; settings: single-cell values, cells #15-#20; right group of third block; listed as Glu
From the text: as §1

[4] = test system: HEK293 cells, control vector; test: Inositol-1-phosphate (IP1) accumulation assay, HEK293 cells transfected with control vector; assay type: cell-based; settings: 100 µM Glu; Vec; listed as Glu
[5] = test system: mGlu1 construct not given; test: Fura-2 Ca2+ imaging in HEK293 cells, source data Suppl Fig1, left group (c0-c8); construct not given; assay type: cell-based, rat; set-up: unit not given here; settings: single-cell values, cells #15-#20; left group of third block; listed as Glu
From the text: as §1

SMILES: N[C@@H](CCC(=O)O)C(=O)O [glutamate, reference compound]
- Ca2+ response of individual cells (source data Suppl Fig1), Vec [1]: 0.01056 and 0.06409 and 0.01964 and 0.006185 and 0.01272 and 0.02269 and 0.02795 and 0.001992 and 0.03471 and 0.04057 and 0.0119 and 0.01116 and 0.01651 and 0.008954 and 0.06266 and 0.02138 and 0.004577 and 0.01188 and 0.01429 and 0.0107
- Ca2+ response of individual cells (source data, sheet Suppl Fig1) [2]: 0.1431 and 0.7212 and 0.03709 and 0.1609 and 0.01695 and 0.7758
- Ca2+ response of individual cells (source data, sheet Suppl Fig1) [3]: 0.5202 and 0.5869 and 0.3843 and 0.3042 and 0.505 and 0.02158
- IP1 accumulation, single experiments [4]: 1.025 and 1.123 and 0.98
- Ca2+ response of individual cells (source data, sheet Suppl Fig1) [5]: 0.1813 and 0.3548 and 0.1848 and 0.1996 and 0.1287 and 0.1577
